Measured values taken from article PMC6017976, “Enzyme Kinetics and Molecular Docking Studies on Cytochrome 2B6, 2C19, 2E1, and 3A4 Activities by Sauchinone” (Molecules : A Journal of Synthetic Chemistry and Natural …, 2018).
Where two headings read alike, the source gives them in different places.

Experiments:
[1] = male, ICR, mouse, in vivo
Experimental: (§1) For analysis of sibutramine, a mobile phase was made, consisting of 10 mM ammonium acetate adjusted to pH 4 with acetic acid: acetonitrile (94:6, v/v) and was eluted at 0.2 mL/min. […] Other parameters of mass spectrometers were the same as those used for analysis of metabolites of CYP substrates.
(§2) Male ICR mice (5 weeks old, weight of 20–25 g) were purchased from the Charles River Company Korea (Orient, Seoul, Korea). […] They were provided free access to food and water. These mice were allowed to acclimate to these conditions for three days prior to inclusion in the experiments.
(§3) Surgical procedures for mice were conducted under tiletamine HCl and zolazepam HCl anesthesia by intramuscular injection. The carotid artery (for blood sampling) cannulation was carried out using catheters (BASi, West Lafayette, IN, USA). Drug administration and blood sampling were performed at 5 h after surgery [55]. […] Other procedures were the same as those used for the sibutramine pharmacokinetic study.
(§4) AUC was calculated using the trapezoidal rule method. Standard methods [56] were used to calculate pharmacokinetic parameters using non-compartmental analysis (WinNonlin 2.1; Pharmasight Corp., Mountain View, CA, USA). Cmax and Tmax were read reversibly from extrapolated data.

[2] = in vivo; conditions: male, ICR, mouse
Experimental: as §1, §2, §3, §4

[3] = Drug interaction of sibutramine, clopidogrel, or chlorzoxazone with sauchinone in mice (plasma pharmacokinetics); conditions: for CL/F / Tmax / half-life / AUC: male, ICR, mouse, in vivo; for AUC: plasma, 1 mg/kg sibutramine, 10 mg/kg clopidogrel or 10 mg/kg chlorzoxazone
Experimental: as §1, §2, §3, §4

[4] = target: T1, CYP2C19 (Homo sapiens, UniProt P33261); assay: Reversible inhibition (RI) of CYP2C19 activity in HLMs (cocktail probe assay); assay type: in vitro ADME; conditions: S-mephenytoin hydroxylation, 100 μM S-mephenytoin, 30 min incubation
T1 construct: pooled human liver microsomes from a mixed pool of 50 donors; tissue BD Gentest Co. 452156; host or cells: human liver microsomes, pool of 50 donors

[5] = mice, drug with sauchinone versus drug alone, decrease
[6] = mice, drug with sauchinone versus drug alone, increase

T1 sequence (P33261 whole entry): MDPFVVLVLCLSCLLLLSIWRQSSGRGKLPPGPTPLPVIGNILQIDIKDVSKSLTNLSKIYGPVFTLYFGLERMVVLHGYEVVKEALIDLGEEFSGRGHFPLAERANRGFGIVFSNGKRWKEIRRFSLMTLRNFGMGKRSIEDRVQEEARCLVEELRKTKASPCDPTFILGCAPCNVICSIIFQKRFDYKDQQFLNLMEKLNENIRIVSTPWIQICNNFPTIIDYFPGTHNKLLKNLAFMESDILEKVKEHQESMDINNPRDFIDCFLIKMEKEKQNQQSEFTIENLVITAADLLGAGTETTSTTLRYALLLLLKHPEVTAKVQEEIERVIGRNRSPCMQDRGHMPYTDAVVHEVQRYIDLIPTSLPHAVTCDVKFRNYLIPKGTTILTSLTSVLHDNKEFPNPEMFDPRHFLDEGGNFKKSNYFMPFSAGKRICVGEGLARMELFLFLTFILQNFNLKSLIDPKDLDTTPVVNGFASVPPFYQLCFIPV

SMILES: COC(=O)[C@H](c1ccccc1Cl)N1CCc2sccc2C1 [Clopidogrel, clopidogrel]
- AUC greater with sauchinone than drug alone (by %) [1]: 31.0%
- CL/F slower with sauchinone than drug alone (by %) [1]: 24.7%
- Cmax higher with sauchinone than drug alone (by %) [1]: 17.3%
- t1/2 smaller with sauchinone than drug alone (by %) [1]: 19.1%
- CL/F [2]: 3.81 ± 0.514 mL/min/kg
- Tmax [2]: 0.25 h
- half-life [2]: 2.18 ± 0.112 h
- CL/F ([2]; po): 2.87 ± 0.225 mL/min/kg
- Tmax ([2]; po): 0.25 h
- half-life ([2]; po): 1.77 ± 0.427 h

SMILES: CC(C)CC(N(C)C)C1(c2ccc(Cl)cc2)CCC1 (centres unmarked) [Sibutramine, sibutramine]
- CL/F [3]: 0.253 ± 0.0208 mL/min/kg
- Tmax [3]: 0.25 h
- half-life [3]: 3.28 ± 0.598 h
- CL/F ([3]; po): 0.205 ± 0.0186 mL/min/kg
- Tmax ([3]; po): 0.25 h
- half-life ([3]; po): 2.75 ± 0.53 h
- AUC ([3]; po, mice, with sauchinone (100 mg/kg oral, 30 min before)): 82000 ng·h/mL
- AUC ([3]; po, mice, without sauchinone (vehicle), oral administration per Table 3): 66300 ng·h/mL
- CL/F slower with sauchinone than drug alone (by %) [3, 5]: 19.0%
- t1/2 smaller with sauchinone than drug alone (by %) [3, 5]: 16.2%
- AUC greater with sauchinone than drug alone (by %) [3, 6]: 23.6%
- Cmax higher with sauchinone than drug alone (by %) [3, 6]: 41.5%

SMILES: COc1ccc2[nH]c([S+]([O-])Cc3ncc(C)c(OC)c3C)nc2c1 (centres unmarked) [omeprazole, reference compound]
- IC50 [4]: 6.59 µM
